Laboratory results: patent US8063025B2, “Nucleoside prodrugs and uses thereof” (Metabasis Therapeutics, Inc., priority 2007, dated 2011)
Read-outs that look alike come from different tables or passages of the source.

How the values were obtained:
[1] = system: hepatitis C virus replicon; conditions: cited from earlier work
rat hepatocytes = assay: NTP generation in rat hepatocytes; assay type: in vitro ADME, male Wistar rats; conditions: for Rat hepatocyte NTP: Table 2
Procedure: Hepatocytes were prepared from male Wistar rats (250-300 g) according to the procedure of Berry and Friend (Berry, M. N.; Friend, D. S. J. Cell Biol. 1969, 43, 506-520) as modified by Groen (Groen, A. K.; Sips, H. J.; Vervoom, R. C.; Tager, J. M. Eur. J. Biochem. 1982, 122, 87-93). Hepatocytes (20 mg/mL wet weight, >85% trypan blue viability) were incubated at 37° C. in 2 mL of Krebs-bicarbonate buffer containing 20 mM glucose, and 1 mg/mL BSA for 2 h in the presence of 10 μM nucleoside or prodrug (from 10 mM stock solutions in DMSO, n>4).
Following the incubation of 4′-azidocytidine analogues, 1600 μL aliquot of the cell suspension was centrifuged and 300 μL of acetonitrile was added to the pellet, vortexed and sonicated until the pellet broke down. Then 200 μL of water was added to make a 60% acetonitrile solution. After 10 min centrifugation at 14,000 rpm, the resulting supernatant was transferred to a new vial and evaporated to near dryness in a Savant SpeedVac Plus at room temperature. The dried residue was reconstituted with 200 μL of water and the mixture was centrifuged for 10 min at 14,000 rpm. A mixture of 35 μL aliquot of supernatant and 35 μL of mobile phase A (20 mM N—N-dimethylhexylamine and 10 mM propionic acid in 20% methanol) was analyzed by LC-MS/MS (Applied Biosystems, API 4000) equipped with an Agilent 1100 binary pump and a LEAP injector. NTP was detected by using MS/MS mode (M-/78.8) and quantified based on comparison to a standard of 2′-C-methyladenosine-5′-triphosphate for 4′-azidocytidine and the compound described in Example 1.
Following incubation of the 4′-azidouridine analogues, 1600 μL aliquot of the cell suspension was centrifuged and 500 μL of acetonitrile containing 0.1 mg/mL dicyclohexylcarbodiimide (DCCD) and 0.1% ammonium hydroxide was added to the pellet and vigorously mixed by vortexing. Liver extracts were analyzed by LC-MS/MS using a Luna NH2 column (5 micron, 2×50 mm, Phenomenex) fitted with a SecurityGuard C18 guard column (5 micron, 4.0×2.0 mm, Phenomenex) and eluted with a gradient from mobile phase A (10 mM ammonium acetate in 50% acetonitrile) to B (1 mM ammonium acetate in 50% acetonitrile containing 1% concentrated ammonium hydroxide) at a flow rate of 0.6 mL/min. The injector temperature was set at 4° C. 4′-AUMP, 4′-AUDP, and […] were detected using the MS/MS mode (364.1/150.8 for 4′-AUMP, 444.1/176.8 for 4′-AUDP, and 524.1/158.9 for 4′-AUTP) and quantified by comparison of peak areas to standard curves obtained by spiking known concentrations of the analytes to blank liver extract.

[2] = Evaluation of liver NTP levels in rat; assay type: in vivo, Sprague-Dawley or Wistar rats; conditions: i.v. administration as printed
[3] = Rat portal vein pharmacokinetic study; design: species or system Male Hanover-Wistar (HW) rats; conditions: in vivo, 7 mg/kg
Procedure: Pharmacokinetic analysis of the esters was carried out as described in Example 2. The calculated value for % Fhepatic is the ratio of measured of the quantity present in the post-hepatic
[formula] circulation (AUCjugular) to the pre-hepatic concentration (AUCportal). This value reflects uptake of the prodrug by hepatocytes. […] These values reflect observed concentrations of non-esterified drug phosphate 26a. The calculated value % Fgut is the ratio of the concentration
[formula] of 26a observed in the portal vein which directly reflects absorption through the gut compared to the concentration observed in the jugular vein after i.v. administration of the same dose. Increased absorption through the gut will increase the observed % Fgut.
Male Hanover-Wistar (HW) rats were obtained from Charles River Laboratories (Wilmington, Mass.). […] Plasma samples were extracted by protein precipitation and analyzed by liquid chromatography coupled to tandem mass spectrometry (LC/MS/MS) for concentrations of 26b, 26a and 20.
Pharmacokinetic parameters were calculated using a non-compartmental model in Watson software (Watson, Thermo Fisher, Waltham, Mass.). % Fhepatic was calculated from the dose-normalized area under the curve (AUC) values obtained from sampling either the portal or jugular vein after PO administration as follows: […]

HCV [4] = conditions: chimpanzee, 7 days, cited from earlier work
HCV [5] = conditions: phase 2 study, 1500 mg BID for 14 days; cited from earlier work
[6] = target: T1, HCV polymerase (NS5B570n-Con1) (Hepatitis C virus genotype 1b, UniProt Q9WMX2); assay: HCV NS5B RNA polymerase activity; assay type: biochemical, HCV Con1 strain
T1 construct: contains a 21 amino acid deletion at the C-terminus relative to the full-length HCV polymerase; 6-histidine (N); made in house; host or cells: E. coli BL21 (DE) pLysS, plasmid pET17b
Procedure: The enzymatic activity of HCV polymerase (NS5B570n-Con1) was measured as the incorporation of radiolabeled nucleotide monophosphates into acid insoluble RNA products. Unincorporated radiolabeled substrate was removed by filtration and scintillant was added to the washed and dried filter plate containing radiolabeled RNA product. The amount of RNA product generated by NS5B570-Con1 at the end of the reaction was directly proportional to the amount of light emitted by the scintillant.
The N-terminal 6-histidine tagged HCV polymerase, derived from HCV Con1 strain, genotype 1b (NS5B570n-Con1) contains a 21 amino acid deletion at the C-terminus relative to the full-length HCV polymerase and was purified from E. coli strain BL21 (DE) pLysS. The construct, containing the coding sequence of HCV NS5B Con1 (GenBank accession number AJ242654) was inserted into the plasmid construct pET17b, downstream of a T7 promoter expression cassette and transformed into E. coli. […]
The amount of light emitted from the scintillant was converted to counts per minute (CPM) on a Topcount® plate reader (Perkin-Elmer, Energy Range: Low, Efficiency Mode: Normal, Count Time: 1 min, Background Subtract: none, Cross talk reduction: Off).
Data was analyzed in Excel® (Microsoft®) and ActivityBase® (Idbs®). […] All data was expressed as a percentage of the positive control. […]

SMILES: C[C@H](NP(=O)(OC[C@@]1(N=[N+]=[N-])O[C@@H](n2ccc(=O)[nH]c2=O)[C@H](O)[C@@H]1O)Oc1cccc2ccccc12)C(=O)OCc1ccccc1 (some centres unmarked) [Example R0142]
- EC50 [1]: 220 nM

SMILES: [N-]=[N+]=N[C@]1(CO[P@@]2(=O)OCC[C@@H](c3cccc(Cl)c3)O2)O[C@@H](n2ccc(=O)[nH]c2=O)[C@H](O)[C@@H]1O [Example 2, 4′-azido-cis-5′-O-[4-(S)-(3-Chlorophenyl)-2-oxo-1,3,2-dioxaphosphorinan-2-yl]uridine]
- nucleoside triphosphate levels in treated rat hepatocytes (rat hepatocytes): dose dependent increase
- NTP levels after administration to a rat [2]: elevated levels

SMILES: [N-]=[N+]=N[C@]1(COP2(=O)OCC[C@@H](c3ccc(Br)cc3F)O2)O[C@@H](n2ccc(=O)[nH]c2=O)[C@H](O)[C@@H]1O (some centres unmarked) [Example 43]
- circulating diester after oral dosing [3]: no circulating diester is observed

SMILES: CC(C)C(N)C(=O)O[C@@H]1[C@@H](CO)O[C@@H](n2ccc(N)nc2=O)[C@]1(C)O (some centres unmarked) [NM283]
- reduction in viral titer (HCV [4]; 16.6 mg/kg/day): 1.15 log10

SMILES: C[C@@]1(O)[C@H](O)[C@@H](CO)O[C@H]1n1ccc2c(N)ncnc21 [MK-0608]
- reduction in viral titer (HCV [4]; intravenous dose of 2 mg/kg/day): > 5 log10

SMILES: CC(C)C(=O)OC[C@@]1(N=[N+]=[N-])O[C@@H](n2ccc(N)nc2=O)[C@H](OC(=O)C(C)C)[C@@H]1OC(=O)C(C)C [Example R1626]
- mean reduction in serum viral titer (HCV [5]): 1.2 log10

SMILES: [N-]=[N+]=N[C@]1(COP(=O)(O)O)O[C@@H](n2ccc(=O)[nH]c2=O)[C@H](O)[C@@H]1O [4′-AU monophosphate]
- IC50 [6]: 218 nM

SMILES: [N-]=[N+]=N[C@]1(CO[P@@]2(=O)OCC[C@@H](c3cccc(Cl)c3)O2)O[C@@H](n2ccc(N)nc2=O)[C@H](O)[C@@H]1O [Example 1, 4′-azido-cis-5′-O-[4-(S)-(3-chlorophenyl)-2-oxo-1,3,2-dioxaphosphorinan-2-yl]-cytidine]
- nucleoside triphosphate levels in treated rat hepatocytes (rat hepatocytes): dose dependent increase
- NTP levels after administration to a rat [2]: very low levels

SMILES: [N-]=[N+]=N[C@]1(CO)O[C@@H](n2ccc(N)nc2=O)[C@H](O)[C@@H]1O [Example R1479, 4′-azidocytidine]
- Rat hepatocyte NTP (rat hepatocytes; 10 μM): <LOQ
- nmol NTP/g @ 10 μM (±SEM) (rat hepatocytes; rat hepatocytes, 10 μM, 2 h, Table 4): <LOQ
- EC50 [1]: 1280 nM
- potency in the cell-based replicon assay [1]: reasonable potency

SMILES: [N-]=[N+]=N[C@]1(CO)O[C@@H](n2ccc(=O)[nH]c2=O)[C@H](O)[C@@H]1O [4′-azidouridine]
- Rat hepatocyte NTP (rat hepatocytes; 10 μM): <LOQ
- EC50 [1]: > 100000 nM
- potency in the cell-based replicon assay [1]: inactive
